Laboratory results from patent US20110104055A1, “SUBSTITUTED N-ARYL BENZAMIDES AND RELATED COMPOUNDS FOR TREATMENT OF AMYLOID DISEASES AND SYNUCLEINOPATHIES” (priority 2002, published 2011).

How the values were obtained:
Format in all cases: biochemical
IAPP fibrils = molecular target: T1, IAPP fibrils (Homo sapiens, UniProt P10997); experiment: Congo red binding assay, IAPP fibrils; conditions: 3-day incubation
T1 construct: purchased Bachem Inc
T1 sequence (P10997 34-70 limits assumed): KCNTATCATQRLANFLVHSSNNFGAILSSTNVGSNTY
Method: (§1) In the Congo red binding assay the ability of a given test compound to alter amyloid (Aβ 1-42 fibrils, IAPP fibrils or NAC fibrils) binding to Congo red was quantified. In this assay, Aβ 1-42 fibrils, IAPP fibril or NAC fibrils and test compounds were incubated for 3 days and then vacuum filtered through a 0.2 μm filter. The amount of Aβ 1-42 fibrils, IAPP fibrils or NAC fibrils retained in the filter was then quantitated following staining of the filter with Congo red. After appropriate washing of the filter, any lowering of the Congo red color on the filter in the presence of the test compound (compared to the Congo red staining of the amyloid protein in the absence of the test compound) was indicative of the test compound's ability to diminish/alter the amount of aggregated and congophilic Aβ 1-42 fibrils, IAPP fibrils or NAC fibrils.
(§2) In the Congo red binding assay the ability of a test compound to alter amyloid (in this case, IAPP) binding to Congo red is quantified. In this assay, IAPP and test compounds were incubated for 3 days and then vacuum filtered through a 0.2 μm filter. The amount of IAPP retained in the filter was then quantified following staining of the filter with Congo red. After appropriate washing of the filter, any lowering of the Congo red color on the filter in the presence of the test compound (compared to the Congo red staining of the amyloid protein in the absence of the test compound) was indicative of the test compound's ability to diminish/alter the amount of aggregated and congophilic IAPP.
In one study, the ability of IAPP fibrils to bind Congo red in the absence or presence of increasing amounts of the compounds or EDTA (at IAPP:test compound weight ratios of 1:0.001, 1:0.01, 1:0.1 and 1:1) was determined.

α-synuclein fibrils = molecular target: T2, α-synuclein fibrils (Homo sapiens, UniProt P37840); experiment: Thioflavin T fluorometry, disruption of pre-formed α-synuclein fibrils (Example 12); conditions: 3 days; for % Inhibition α-synuclein (result ± S.D.), Thioflavin T fluorometry: 30 μg pre-fibrillized α-synuclein, 37° C.
T2 construct: purchased rPeptide
Method: (§3) In this assay, Thioflavin T binds specifically to α-synuclein fibrils, and this binding produces a fluorescence enhancement at 485 nm that is directly proportional to the amount of α-synuclein fibrils present. The higher the fluorescence, the greater the amount of α-synuclein fibrils present (Naki et al, Lab. Invest. 65:104-110, 1991; Levine III, Protein Sci. 2:404-410, 1993; Amyloid: Int. J. Exp. Clin. Invest. 2:1-6, 1995).
In this study, 30 μg of pre-fibrillized α-synuclein (rPeptide) was incubated at 37° C. for 3 days either alone or in the presence of compounds DC-0051-F1, F2, F3, F4, F5, F6 or EDTA (at α-synuclein:test compound weight ratios of 1:1, 1:0.1, 1:0.01 or 1:0.001). Following 3-days of co-incubation, 50 μl of each incubation mixture was transferred into a 96-well microtiter plate containing 150 μl of distilled water and 50 μl of a Thioflavin T solution (i.e. […] Thioflavin T in 250 mM phosphate buffer, pH 6.8). The fluorescence was read at 485 nm (444 nm excitation wavelength) using an ELISA plate fluorometer after subtraction with buffer alone or compound alone, as blank.

Aβ 1-42 = molecular target: T3, Aβ 1-42 (Homo sapiens, UniProt P05067); experiment: SDS-PAGE/Western blot of Aβ 1-42 after incubation with compounds; conditions: 25 μM pre-fibrillized Aβ 1-42, 37° C., 3 days, filtrate of 0.2 μm filter, 6E10 antibody
T3 construct: 25 μM of pre-fibrillized Aβ 1-42 (Bachem Inc) was incubated at 37° C; purchased Bachem Inc
Method: The biological activity of the compounds provided herein as disruptors/inhibitors of Alzheimer's disease β-amyloid protein (Aβ) fibrils, type 2 diabetes IAPP fibrils and Parkinson's disease NAC fibrils was assessed by determining the efficacy of the compounds to cause a disassembly/disruption of pre-formed amyloid fibrils of Alzheimer's disease (i.e. consisting of Aβ 1-42 fibrils), IAPP fibrils and Parkinson's disease NAC fibrils.
In this latter study, triplicate samples of pre-fibiillized Aβ 1-42 (25 μM) was incubated at 37° C. for 3 days, alone or in the presence of the compounds or EDTA. Five micrograms of each sample was then filtered through a 0.2 μm filter. Protein recovered from the filtrate was then loaded, and ran on a 10-20% Tris-Tricine SDS-PAGE, blotted to nitrocellulose and detected using an Aβ-antibody (clone 6E10; Senetek).

Aβ 1-42 fibrils [1] = molecular target: T4, Aβ 1-42 fibrils (Homo sapiens, UniProt P05067); experiment: Thioflavin T fluorometry, disruption of pre-formed Aβ 1-42 fibrils (Example 7); conditions: for % inhibition of Aβ (Thioflavin T fluorometry): 25 μM pre-fibrillized Aβ 1-42, 37° C., 3 days (Table 3)
T4 construct: purchased Bachem Inc
Method: as §3, with “assay” for “assay,”, “fibrillar amyloid,” for “α-synuclein fibrils,”, “amyloid” for “α-synuclein”, “formed.” for “present.”, “formed” for “present”, “al.,” for “al,”
Following 3 days of co-incubation, 50 μl of each incubation mixture was transferred into a 96-well microtiter plate containing 150 μl of distilled water and 50 μl of a Thioflavin T solution (i.e. 500 mM Thioflavin T in 250 mM phosphate buffer, pH 6.8). The fluorescence was read at 485 nm (444 nm excitation wavelength) using an ELISA plate fluorometer after subtraction with buffer alone or compound alone, as blank).

Aβ 1-42 fibrils [2] = molecular target: T4, Aβ 1-42 fibrils; experiment: Congo red binding assay, Aβ 1-42 fibrils (Example 6); conditions: 3-day incubation
Method: as §1
as §2, with “Aβ)” for “IAPP)”, “Aβ 1-42” for “IAPP”, “Aβ.” for “IAPP.”
In one study, the ability of Aβ fibrils to bind Congo red in the absence or presence of increasing amounts of the compounds or EDTA (at Aβ:test compound weight ratios of 1:0.001, 1:0.01, 1:0.1 and 1:1) was determined.

[3] = Aβ:test compound wt/wt ratio 1:0.001
[4] = Aβ:test compound wt/wt ratio 1:0.01
[5] = Aβ:test compound wt/wt ratio 1:0.1
[6] = Aβ:test compound wt/wt ratio 1:1

T4 sequence (P05067 672-713): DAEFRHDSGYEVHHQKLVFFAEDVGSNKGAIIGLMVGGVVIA
T3 sequence (P05067 672-713): as above

Question: `O=C(O)CN(CCN(CC(=O)O)CC(=O)O)CC(=O)O` [EDTA] was tested. Which “inhibition of IAPP fibril binding to Congo red, in words” value (IAPP fibrils) did it give?
Answer: no significant inhibition

Question: What about the “% inhibition of IAPP (Congo red binding)” value (IAPP fibrils; IAPP:test compound wt/wt ratio 1:0.001) of the same molecule?
Answer: 0.0 ± 1.82%

Question: What about the “% inhibition of IAPP (Congo red binding)” value (IAPP fibrils; IAPP:test compound wt/wt ratio 1:0.01) of the same molecule?
Answer: 0.0 +/− 1.65%

Question: And the “% inhibition of IAPP (Congo red binding)” value (IAPP fibrils; IAPP:test compound wt/wt ratio 1:0.1)?
Answer: 0.0 +/− 2.40%

Question: What about the “% inhibition of IAPP (Congo red binding)” value (IAPP fibrils; IAPP:test compound wt/wt ratio 1:1) of the same molecule?
Answer: 13.9 +/− 4.71%

Question: What about the “disruption/disassembly of pre-formed α-synuclein fibrils, in words” value (α-synuclein fibrils; Thioflavin T fluorometry, all concentrations tested) of the same molecule?
Answer: no significant inhibition

Question: What about the “% Inhibition α-synuclein (result ± S.D.), Thioflavin T fluorometry” value (“% Inhibition α-synuclein” for short) (α-synuclein fibrils; α-synuclein:test compound wt/wt ratio 1:0.001) of the same molecule?
Answer: 0.0 ± 4.11%

Question: What about the “% Inhibition α-synuclein” value (α-synuclein fibrils; α-synuclein:test compound wt/wt ratio 1:0.01) of the same molecule?
Answer: 0.0 ± 17.06%

Question: And the “% Inhibition α-synuclein” value (α-synuclein fibrils; α-synuclein:test compound wt/wt ratio 1:0.1)?
Answer: 0.0 ± 6.97%

Question: What about the “% Inhibition α-synuclein” value (α-synuclein fibrils; α-synuclein:test compound wt/wt ratio 1:1) of the same molecule?
Answer: 0.0 ± 2.03%

Question: And the “detection of Aβ 1-42 monomers (~4 kilodalton band) after incubation” value (Aβ 1-42)?
Answer: detected as a ˜4 kilodalton band

Question: And the “% inhibition of Aβ (Thioflavin T fluorometry)” value (Aβ 1-42 fibrils [1]; [3])?
Answer: 10.3 +/− 10.81%

Question: And the “% inhibition of Aβ (Thioflavin T fluorometry)” value (Aβ 1-42 fibrils [1]; [4])?
Answer: 0.0 +/− 2.26%

Question: And the “% inhibition of Aβ (Thioflavin T fluorometry)” value (Aβ 1-42 fibrils [1]; [5])?
Answer: 0.0 +/− 1.18%

Question: What about the “% inhibition of Aβ (Thioflavin T fluorometry)” value (Aβ 1-42 fibrils [1]; [6]) of the same molecule?
Answer: 5.0 +/− 11.39%

Question: What about the “disruption/disassembly of preformed Aβ 1-42 fibrils, in words” value (Aβ 1-42 fibrils [1]; Thioflavin T fluorometry, all concentrations tested, 3 days) of the same molecule?
Answer: no significant inhibition/disruption

Question: What about the “inhibition of Aβ 1-42 fibril binding to Congo red, in words” value (Aβ 1-42 fibrils [2]) of the same molecule?
Answer: no significant inhibition

Question: And the “% inhibition of Aβ (Congo red binding)” value (Aβ 1-42 fibrils [2]; [3])?
Answer: 0.0 ± 0.62%

Question: And the “% inhibition of Aβ (Congo red binding)” value (Aβ 1-42 fibrils [2]; [4])?
Answer: 0.0 +/− 0.49%

Question: What about the “% inhibition of Aβ (Congo red binding)” value (Aβ 1-42 fibrils [2]; [5]) of the same molecule?
Answer: 0.0 ± 0.76%

Question: What about the “% inhibition of Aβ (Congo red binding)” value (Aβ 1-42 fibrils [2]; [6]) of the same molecule?
Answer: 3.9 +/− 1.37%
